From patent publication US20110028686A1, “Protein binding miniature proteins” (Yale University, priority 2000, published 2011)
Values joined by “and” are separate entries in the source; they are usually repeats but may differ in a detail not shown here. Identical values can stand only once. Like-named read-outs stand apart in the source and are kept apart here. One block for each compound: values may come before it. Square brackets hold non-standard residues; d marks the D form. Peptide text beside a SMILES is read from it. * marks the point of attachment. Fluorescein(5-NHCOCH2) = O=C(C*)Nc1ccc2c(c1)C(=O)OC21c2ccc(O)cc2Oc2cc(O)ccc21; pS = N[C@@H](COP(=O)(O)O)C(=O)O

Experiments:
CBP KIX K606A = biological target: T1, CBP KIX K606A (Mus musculus, UniProt P45481, K606A); assay: Equilibrium fluorescence polarization, CBP KIX variant K606A; format: binding
T1 construct: made in house; host or cells: E. coli BL21(DE3) pArg
T1 sequence (P45481 586-665 K606A limits assumed): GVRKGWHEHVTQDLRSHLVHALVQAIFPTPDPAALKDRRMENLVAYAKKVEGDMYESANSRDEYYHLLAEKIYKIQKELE

CBP KIX Y658F = biological target: T2, CBP KIX Y658F (Mus musculus, UniProt P45481, Y658F); assay: Equilibrium fluorescence polarization, CBP KIX variant Y658F; format: binding
T2 construct: made in house; host or cells: E. coli BL21(DE3) pArg
T2 sequence (P45481 586-665 Y658F limits assumed): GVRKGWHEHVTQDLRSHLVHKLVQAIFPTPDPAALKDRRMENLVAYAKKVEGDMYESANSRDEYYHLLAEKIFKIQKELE

[1] = biological target: T3, HisKIX (His-tagged CBP KIX domain) (Mus musculus, UniProt P45481); assay: Equilibrium fluorescence polarization, HisKIX binding; conditions: for Kd: 25° C.
T3 construct: The CBP KIX-coding region (residues 586 to 672) of pGEX-KT KIX 10-672; made in house; host or cells: E. coli BL21(DE3) pArg
T3 sequence (P45481 586-672): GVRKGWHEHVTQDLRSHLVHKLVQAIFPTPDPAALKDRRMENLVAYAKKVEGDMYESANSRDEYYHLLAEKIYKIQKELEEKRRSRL

CBP KIX K662A = biological target: T4, CBP KIX K662A (Mus musculus, UniProt P45481, K662A); assay: Equilibrium fluorescence polarization, CBP KIX variant K662A; format: binding
T4 construct: made in house; host or cells: E. coli BL21(DE3) pArg
T4 sequence (P45481 586-665 K662A limits assumed): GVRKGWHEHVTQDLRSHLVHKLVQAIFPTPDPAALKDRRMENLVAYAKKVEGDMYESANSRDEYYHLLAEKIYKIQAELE

CBP KIX I657A = biological target: T5, CBP KIX I657A (Mus musculus, UniProt P45481, I657A); assay: Equilibrium fluorescence polarization, CBP KIX variant I657A; format: binding
T5 construct: made in house; host or cells: E. coli BL21(DE3) pArg
T5 sequence (P45481 586-665 I657A limits assumed): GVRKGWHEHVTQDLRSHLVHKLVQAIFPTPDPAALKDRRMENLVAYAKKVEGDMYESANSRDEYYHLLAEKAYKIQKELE

CBP KIX L599A = biological target: T6, CBP KIX L599A (Mus musculus, UniProt P45481, L599A); assay: Equilibrium fluorescence polarization, CBP KIX variant L599A; format: binding
T6 construct: made in house; host or cells: E. coli BL21(DE3) pArg
T6 sequence (P45481 586-665 L599A limits assumed): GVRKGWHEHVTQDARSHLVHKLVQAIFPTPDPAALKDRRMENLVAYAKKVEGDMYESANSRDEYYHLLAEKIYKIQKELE

CBP KIX Y650A = biological target: T7, CBP KIX Y650A (Mus musculus, UniProt P45481, Y650A); assay: Equilibrium fluorescence polarization, CBP KIX variant Y650A; format: binding
T7 construct: made in house; host or cells: E. coli BL21(DE3) pArg
T7 sequence (P45481 586-665 Y650A limits assumed): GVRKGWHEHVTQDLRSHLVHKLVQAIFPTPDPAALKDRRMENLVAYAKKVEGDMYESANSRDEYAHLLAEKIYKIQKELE

CBP KIX L603A = biological target: T8, CBP KIX L603A (Mus musculus, UniProt P45481, L603A); assay: Equilibrium fluorescence polarization, CBP KIX variant L603A; format: binding
T8 construct: made in house; host or cells: E. coli BL21(DE3) pArg
T8 sequence (P45481 586-665 L603A limits assumed): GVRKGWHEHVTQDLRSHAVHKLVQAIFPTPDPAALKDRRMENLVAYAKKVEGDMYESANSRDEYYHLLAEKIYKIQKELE

CBP KIX LL652-3AA = biological target: T9, CBP KIX LL652-3AA (Mus musculus, UniProt P45481, L652A/L653A); assay: Equilibrium fluorescence polarization, CBP KIX variant LL652-3AA; format: binding
T9 construct: made in house; host or cells: E. coli BL21(DE3) pArg
T9 sequence (P45481 586-665 L652A/L653A): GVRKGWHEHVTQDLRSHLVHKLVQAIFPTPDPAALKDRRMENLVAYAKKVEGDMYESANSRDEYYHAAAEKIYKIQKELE

CBP KIX Y658A = biological target: T10, CBP KIX Y658A (Mus musculus, UniProt P45481, Y658A); assay: Equilibrium fluorescence polarization, CBP KIX variant Y658A; format: binding; conditions: 25° C.
T10 construct: made in house; host or cells: E. coli BL21(DE3) pArg
T10 sequence (P45481 586-665 Y658A limits assumed): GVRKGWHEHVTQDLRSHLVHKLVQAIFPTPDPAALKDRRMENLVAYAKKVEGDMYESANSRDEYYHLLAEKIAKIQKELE

Calmodulin = biological target: T11, Calmodulin (Homo sapiens, UniProt P0DP23); assay: Fluorescence polarization specificity, calmodulin; format: binding; conditions: calmodulin as target protein; read-out: Kd CalM
T11 construct: purchased Sigma
Text: (§1) Given the myriad protein surfaces present in the cell, the utility of molecules that recognize protein surfaces will depend on their ability to interact selectively with the desired protein.

CBP KIX Q661A = biological target: T12, CBP KIX Q661A (Mus musculus, UniProt P45481, Q661A); assay: Equilibrium fluorescence polarization, CBP KIX variant Q661A; format: binding; conditions: 25° C.
T12 construct: made in house; host or cells: E. coli BL21(DE3) pArg
T12 sequence (P45481 586-665 Q661A limits assumed): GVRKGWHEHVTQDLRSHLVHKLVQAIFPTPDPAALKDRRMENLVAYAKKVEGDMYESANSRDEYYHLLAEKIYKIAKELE

CBP KIX E655A = biological target: T13, CBP KIX E655A (Mus musculus, UniProt P45481, E655A); assay: Equilibrium fluorescence polarization, CBP KIX variant E655A; format: binding; conditions: 25° C.
T13 construct: made in house; host or cells: E. coli BL21(DE3) pArg
T13 sequence (P45481 586-665 E655A limits assumed): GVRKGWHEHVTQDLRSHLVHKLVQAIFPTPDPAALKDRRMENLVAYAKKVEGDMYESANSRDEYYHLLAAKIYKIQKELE

Carbonic anhydrase II = biological target: T14, Carbonic anhydrase II (Homo sapiens, UniProt P00918); assay: Fluorescence polarization specificity, carbonic anhydrase II; format: binding; conditions: carbonic anhydrase II as target protein; read-out: Kd CA
T14 construct: purchased Sigma
Text: as §1

CBP KIX I660A = biological target: T15, CBP KIX I660A (Mus musculus, UniProt P45481, I660A); assay: Equilibrium fluorescence polarization, CBP KIX variant I660A; format: binding; conditions: 25° C.
T15 construct: made in house; host or cells: E. coli BL21(DE3) pArg
T15 sequence (P45481 586-665 I660A limits assumed): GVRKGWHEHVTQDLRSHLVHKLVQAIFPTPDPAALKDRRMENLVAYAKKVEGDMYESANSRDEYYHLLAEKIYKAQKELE

CBP KIX wild type = biological target: T16, CBP KIX wild type (Mus musculus, UniProt P45481); assay: Equilibrium fluorescence polarization, wild type CBP KIX; format: binding; conditions: 25° C.
T16 construct: made in house; host or cells: E. coli BL21(DE3) pArg
T16 sequence (P45481 586-665 limits assumed): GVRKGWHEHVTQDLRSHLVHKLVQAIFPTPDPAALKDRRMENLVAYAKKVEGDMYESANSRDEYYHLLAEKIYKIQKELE

- ΔΔG vs wild type CBP KIX, K606A (CBP KIX K606A): 1.0 kcal/mol
- ΔΔG vs wild type CBP KIX, Y658F (CBP KIX Y658F): 2.5 kcal/mol
- ΔΔG of HisKIX binding upon phosphorylation [1]: > 3.2 kcal/mol
- ΔΔG vs wild type CBP KIX, K662A (CBP KIX K662A): 1.5 kcal/mol
- ΔΔG vs wild type CBP KIX, I657A (CBP KIX I657A): 0.9 kcal/mol
- ΔΔG vs wild type CBP KIX, L599A (CBP KIX L599A): 0.58 kcal/mol
- ΔΔG vs wild type CBP KIX, Y650A (CBP KIX Y650A): 1.8 kcal/mol
- ΔΔG vs wild type CBP KIX, L603A (CBP KIX L603A): 1.2 kcal/mol
- ΔΔG vs wild type CBP KIX, LL652-3AA (CBP KIX LL652-3AA): 1.2 kcal/mol
SMILES: CC[C@H](C)[C@H](NC(=O)[C@H](CCCCN)NC(=O)[C@H](CCCNC(=N)N)NC(=O)[C@H](Cc1ccc(O)cc1)NC(=O)[C@H](COP(=O)(O)O)NC(=O)[C@@H]1CCCN1C(=O)[C@H](CCCNC(=N)N)NC(=O)[C@H](CCCNC(=N)N)NC(=O)[C@H](CO)NC(=O)[C@H](CC(C)C)NC(=O)[C@@H](NC(=O)[C@H](CCC(=O)O)NC(=O)[C@H](CCCNC(=N)N)NC(=O)[C@H](CCCNC(=N)N)NC(=O)[C@H](CCCCN)NC(=O)[C@H](CCC(N)=O)NC(=O)[C@H](CO)NC(=O)[C@H](CC(=O)O)NC(=O)[C@@H](N)[C@@H](C)O)[C@@H](C)CC)C(=O)N[C@@H](CC(C)C)C(=O)N[C@@H](CC(N)=O)C(=O)N[C@@H](CC(=O)O)C(=O)N[C@@H](CC(C)C)C(=O)N[C@@H](CO)C(=O)N[C@@H](CO)C(=O)N[C@@H](CC(=O)O)C(=O)N[C@@H](C)C(=O)N1CCC[C@H]1C(=O)NCC(=O)N[C@H](C(=O)N[C@@H](CSCC(=O)Nc1ccc2c(c1)C(=O)OC21c2ccc(O)cc2Oc2cc(O)ccc21)C(N)=O)C(C)C [KID-AB, reference compound] (H-TDSQKRREILSRRP[pS]YRKILNDLSSDAPGVC(Fluorescein(5-NHCOCH2))-NH2)

- Kd (CBP KIX K606A; 25° C.): 3.1 ± 0.2 µM
- Kd (CBP KIX Y658F; 25° C.): 4.1 ± 0.2 µM
- Kd (CBP KIX Y658A): 4.1 µM and 3.9 µM
- Kd (Calmodulin): 51 µM and 52 µM
- Kd ([1]; fluorescein-labeled phosphopeptide, read-out: Kd HisKIX, phosphorylated peptide (P)): 0.515 ± 0.044 µM
- Kd ([1]; fluorescein-labeled unphosphorylated peptide, read-out: Kd HisKIX, unphosphorylated peptide (U)): 12.1 ± 2.4 µM
- Kd (CBP KIX Q661A): 1.1 ± 0.1 µM
- Kd (CBP KIX E655A): 0.54 ± 0.05 µM
- Kd (CBP KIX K662A; 25° C.): 3.9 ± 0.3 µM
- Kd (Carbonic anhydrase II): 106 ± 12 µM
- Kd (CBP KIX I657A; 25° C.): 2.7 ± 0.1 µM
- Kd (CBP KIX I660A): 1.1 ± 0.1 µM
- Kd (CBP KIX Y650A; 25° C.): 3 ± 0.3 µM
- Kd (CBP KIX L603A; 25° C.): 3.4 ± 0.5 µM
- Kd (CBP KIX LL652-3AA; 25° C.): 2.9 ± 0.2 µM
- Kd (CBP KIX wild type): 0.61 ± 0.04 µM
SMILES: CC[C@H](C)[C@H](NC(=O)[C@H](Cc1ccc(O)cc1)NC(=O)[C@H](Cc1ccccc1)NC(=O)[C@H](Cc1ccccc1)NC(=O)[C@H](COP(=O)(O)O)NC(=O)[C@H](CC(C)C)NC(=O)[C@H](CCCNC(=N)N)NC(=O)[C@H](CCCNC(=N)N)NC(=O)[C@@H](NC(=O)[C@@H]1CCCN1C(=O)[C@H](C)NC(=O)[C@H](CC(=O)O)NC(=O)[C@H](CC(=O)O)NC(=O)CNC(=O)[C@@H]1CCCN1C(=O)[C@H](Cc1ccc(O)cc1)NC(=O)[C@@H](NC(=O)[C@@H]1CCCN1C(=O)[C@H](CCC(N)=O)NC(=O)[C@H](CO)NC(=O)[C@@H]1CCCN1C(=O)CN)[C@@H](C)O)C(C)C)C(=O)N[C@@H](CC(C)C)C(=O)N[C@@H](CC(C)C)C(=O)N[C@@H](CC(=O)O)C(=O)N[C@@H](CC(C)C)C(=O)N[C@@H](Cc1ccc(O)cc1)C(=O)N[C@@H](CC(C)C)C(=O)N[C@@H](CC(=O)O)C(=O)N[C@@H](C)C(=O)N1CCC[C@H]1C(=O)NCC(=O)N[C@H](C(=O)N[C@@H](CSCC(=O)Nc1ccc2c(c1)C(=O)OC21c2ccc(O)cc2Oc2cc(O)ccc21)C(N)=O)C(C)C [PPKID4]
